{"source": "patent US11324698B2", "about": "“Sterically stabilized carrier for aerosol therapeutics, compositions and methods for treating the respiratory tract of a mammal” (VGSK Technologies, Inc., priority 2003, dated 2022)", "key": {"[1]": {"settings": "BUD alone; cited from earlier work"}, "[2]": {"tested_on": "sensitized mice", "assay": "Preliminary dose-response study of daily nebulized BUD in sensitized mice", "format": "in vivo", "settings": "daily nebulization", "description": "The dose of BUD chosen was based on preliminary dose-response studies with 5 to 50 μg of BUD as follows.\nEach day, 5, 10, 15, 20 or 50 μg of BUD was administered via nebulization to groups of sensitized mice, and the dose-dependent effects on the inflammatory parameters were evaluated."}}}
{"smiles": "CCCC1O[C@@H]2C[C@H]3[C@@H]4CCC5=CC(=O)C=C[C@]5(C)[C@H]4[C@@H](O)C[C@]3(C)[C@]2(C(=O)CO)O1", "note": "(stereo partly drawn) [Daily BUD, budesonide]", "values": [{"measurement": "effective life in the lungs", "setting": "[1]", "value": "no more than one day"}, {"measurement": "toxicity to the spleen, liver, bone morrow or gastrointestinal tract", "setting": "[2]; 20 μg/ml dose of BUD, histopathologic examination", "value": "without evidence of toxicity"}, {"measurement": "granulomas or abnormalities in tissues", "setting": "[2]; preliminary dose-response study", "value": "no granulomas or abnormalities in any of the tissues evaluated"}]}
